# Experimental data reported in US20250092065A1, “2-(INDAZOL-5-YL)-6-(PIPERIDIN-4-YL)-1,7-NAPHTHYRIDINE DERIVATIVES AND RELATED COMPOUNDS AS MODULATORS FOR SPLICING NUCLEIC ACIDS AND FOR THE TREATMENT OF PROLIFERATIVE DISEASES” (REMIX THERAPEUTICS INC., priority 2022, published 2025).
# Read-outs that look alike come from different tables or passages of the source.
# Assays:
# HTT mRNA = test: RT-qPCR splicing assay, HTT mRNA canonical (CJ) and alternative (AJ) junction; assay type: cell-based, human; conditions: Homo sapiens; for AC50: HTT alternative junction mRNA, read-out: HTT AJ (increase in AJ mRNA, AC50)
# Method: (§1) Compounds described herein were used to modulate RNA transcript abundance in cells. The expression of a target mRNA was measured by detecting the formation of an exon-exon junction in the canonical transcript (CJ). A compound mediated exon-inclusion event was detected by observing an increase in formation of a new junction with an alternative exon (AJ). Real-time qPCR assays were used to detect these splicing switches and interrogate the potency of various compounds towards different target genes. A high-throughput real time quantitative PCR (RT-qPCR) assay was developed to measure these two isoforms of the mRNA (CJ and AJ) for exemplary genes, such as HTT, SMN2, and MYB, together with a control housekeeping gene, GAPDH or GUSB or PPIA, used for normalization. Briefly, the A673 or K562 cell line was treated with various compounds described herein (e.g., compounds of Formula (I)). After treatment, the levels of the HTT, MYB, or SMN2 mRNA targets were determined from each sample of cell lysate by cDNA synthesis followed by qPCR.
# (§2) The A673 cell line was cultured in DMEM with 10% FBS. Cells were diluted with full growth media and plated in a 96-well plate (15,000 cells in 100 ul media per well). The plate was incubated at 37° C. with 5% CO2 for 24 hours to allow cells to adhere. An 11-point 3-fold serial dilution of the compounds was made in DMSO then diluted in media in an intermediate plate. Compounds were transferred from the intermediate plate to the cell plate with the top dose at a final concentration of 10 uM in the well. Final DMSO concentration was kept at or below 0.25%. The cell plate was returned to the incubator at 37° C. with 5% CO2 for an additional 24 hours.
# (§3) The K562 cell line was cultured in IMDM with 10% FBS. For K562, cells were diluted with full growth media and plated in either a 96-well plate (50,000 cells in 50 uL media per well) or a 384-well plate (8,000-40,000 cells in 45 uL media per well). An 11-point 3-fold serial dilution of the compounds were made in DMSO then diluted in media in an intermediate plate. Compound was transferred from the intermediate plate to the cell plate with the top dose at a final concentration of 10 uM in the well. Final DMSO concentration was kept at or below 0.25%. Final volume was 100 uL for 96-well plate and 50 uL for 384-well plate. The cell plate was then placed in an incubator at 37° C. with 5% CO2 for 24 hours.
# (§4) The cells were then gently washed with 50 uL-100 uL cold PBS before proceeding to addition of lysis buffer. 30 uL-50 μL of room temperature lysis buffer with DNAse I (and optionally RNAsin) was added to each well. Cells were shaken/mixed thoroughly at room temperature for 5-10 minutes for lysis to take place and then 3 uL-5 μL of room temperature stop solution was added and wells were shaken/mixed again. After 2-5 minutes, the cell lysate plate was transferred to ice for RT-qPCR reaction setup. The lysates could also be frozen at −80° C. for later use.
# (§5) In some cases, a direct lysis buffer was used. An appropriate volume of 3× lysis buffer (10 mM Tris, 150 mM NaCl, 1.5%-2.5% Igepal and 0.1-1 U/uL RNAsin, pH 7.4) was directly added to either K562 or A673 cells in media and mixed by pipetting 3 times. The plates were then incubated at room temperature with shaking/rocking for 20-50 minutes to allow for lysis to take place. After this time, the cell lysate plate was transferred to ice to set up for the RT-qPCR reactions. The lysates could also be frozen at −80° C. for later use.
# (§6) To set up 10 uL RT-qPCR reactions, cell lysates were transferred to 384-well qPCR plates containing the master mix according to the table below. The plates were sealed, gently vortexed, and spun down before the run. The volumes were adjusted accordingly in some instances where the reaction was carried in 20 μL. The table below summarizes the components of the RT-qPCR reactions:
# (§7) The RT-qPCR reaction was performed using a QuantStudio (ThermoFisher) under the following fast cycling conditions. […]
# MYB mRNA = test: RT-qPCR splicing assay, MYB mRNA canonical (CJ) and alternative (AJ) junction; assay type: cell-based, human; conditions: Homo sapiens; for AC50: MYB alternative junction mRNA, read-out: MYB AJ (increase in AJ mRNA, AC50)
# Method: as §1, §2, §3, §4, §5, §6, §7
# SMN2 mRNA = test: RT-qPCR splicing assay, SMN2 mRNA; assay type: cell-based, human; conditions: Homo sapiens, canonical junction qPCR panel, Table 4; read-out: SMN2 IC50 (decrease in CJ mRNA levels)
# Method: as §1, §2, §3, §4, §5, §6, §7
# MYB = test: HiBiT protein abundance assay, MYB (K562 HiBiT knock-in); assay type: cell-based, human; conditions: HiBiT knock-in K562 cells, 24 hours, top dose 10 μM
# Method: (§8) Compounds described herein were used to screen for effects on quantitative protein abundance using a HiBit assay system (Promega). Quantitative protein abundance was determined by measuring the protein levels of HiBit-tagged protein targets expressed in cell culture via luminescence using the Nano-Glo HiBiT Lytic Detection System, which uses a split complementation assay format to reconstitute NanoBiT enzyme to generate a luminescent signal. A protein abundance assay was developed such that endogenous protein targets could be modified with the HiBiT peptide tag and their abundance could be assessed after compound treatment. Briefly, K562 cell lines containing a HiBiT-modification were treated with various compounds described herein (e.g., compounds of Formulas (I), or (II)). After treatment for 24 hours, the protein abundance of a specific target was determined by measuring luminescence.
# (§9) Cells were maintained in IMIDM with 10% FBS. Before the assay, cells were diluted with […] growth media (IMIDM+[…] media) and were seeded in a 384-well plate at a density of 10000 cells/well (for each cell line listed in Table 6). Each compound was prepared as a 10-point 3-fold serial dilution in DMSO with the top dose at a final concentration of 10 μM in the well. Unmodified K562 cells were added at the previously specified density with DMSO to serve as an assay baseline and positive control (PC) and DMSO only with the respective modified cell lines was added to the negative control (NC) columns. Final DMSO concentration was kept at or below 0.25%. Treated cell plates were placed in an incubator at 37° C. with […] for 24 hours. After 24 hours, 25 μL of Complete HiBit Lytic reagent was added to each well at room temperature (e.g. one plate requiring 10 mL Lytic Buffer, 100 μL LgBiT Protein, 200 μL Lytic Substrate), shaken for 5 minutes at 600 RPM, then left to sit for 10 minutes for signal to stabilize before reading on a Spark Cyto plate reader (Tecan) with a 500 ms measurement time.
# (§10) To determine compound effects on protein abundance of each target in Table 6, the percent response for each respective cell line was calculated at each compound concentration as follows:
# (§11) % response=100*(S−PC)(NC−PC)
# (§12) For the normalized response at each concentration, a four-parameter logistical regression was fit to the data and the response was interpolated at the […] to determine a concentration for protein abundance at 50% (IC50) the untreated control.
# HTT = test: HiBiT protein abundance assay, HTT (K562 HiBiT knock-in); assay type: cell-based, human; conditions: HiBiT knock-in K562 cells, 24 hours, top dose 10 μM
# Method: as §8, §9, §10, §11, §12
# Target C = test: HiBiT protein abundance assay, Target C (K562 HiBiT knock-in); assay type: cell-based, human; conditions: HiBiT knock-in K562 cells, 24 hours, top dose 10 μM
# Method: as §9, §10, §11, §12
# K562 cells = test: Cell Titer Glo 2.0 cell viability (toxicity) assay, K562; conditions: 500 cells/well, 72 hours
# [1] = HTT canonical junction mRNA, RT-qPCR, read-out: HTT CJ (decrease in CJ mRNA levels, IC50)
# [2] = canonical junction qPCR panel, Table 4, read-out: HTT IC50 (decrease in CJ mRNA levels)
# [3] = MYB canonical junction mRNA, RT-qPCR, read-out: MYB CJ (decrease in CJ mRNA levels, IC50)
# [4] = canonical junction qPCR panel, Table 4, read-out: MYB IC50 (decrease in CJ mRNA levels)
IC50 (HTT mRNA; [1]),IC50 (HTT mRNA; [2]),IC50 (MYB mRNA; [3]),IC50 (MYB mRNA; [4]),IC50 (SMN2 mRNA),IC50 (MYB),IC50 (HTT),IC50 (Target C),SMILES,AC50 (HTT mRNA; RT-qPCR),AC50 (MYB mRNA; RT-qPCR),"Effect of Exemplary Compounds on Cell Viability, K562 (K562 cells)"
< 0.1 µM,< 0.1 µM,< 0.1 µM,< 0.1 µM,< 0.1 µM,< 0.1 µM,< 0.1 µM,< 0.1 µM,Cn1cc2cc(-c3ccc4nc(C5CCNCC5)ccc4n3)c(O)cc2n1 [Compound 100],0.1 to 1 µM,1 to 10 µM,B (B represents 100-1000 nM)
< 0.1 µM,< 0.1 µM,< 0.1 µM,< 0.1 µM,< 0.1 µM,< 0.1 µM,< 0.1 µM,< 0.1 µM,Cc1c(O)c(-c2ccc3nc(C4CCNCC4)ccc3n2)cc2cn(C)nc12 [Compound 101],< 0.1 µM,< 0.1 µM,A (A represents <100 nM)
< 0.1 µM,< 0.1 µM,< 0.1 µM,< 0.1 µM,< 0.1 µM,< 0.1 µM,< 0.1 µM,< 0.1 µM,Cn1cc2cc(-c3ccc4nc(C5CCNCC5)ccc4n3)c(O)c(F)c2n1 [Compound 102],< 0.1 µM,< 0.1 µM,A (A represents <100 nM)
1 to 10 µM,1 to 10 µM,1 to 10 µM,1 to 10 µM,0.1 to 1 µM,1 to 10 µM,1 to 10 µM,1 to 10 µM,Cn1cc2c(O)c(-c3cc4ccc(C5CCNCC5)nc4cn3)ccc2n1 [Compound 106],1 to 10 µM,0.1 to 1 µM,B (B represents 100-1000 nM)
0.1 to 1 µM,0.1 to 1 µM,0.1 to 1 µM,0.1 to 1 µM,< 0.1 µM,0.1 to 1 µM,0.1 to 1 µM,0.1 to 1 µM,Cn1cc2cc(-c3ncc4nc(C5CCNCC5)ccc4n3)c(O)cc2n1 [Compound 107],0.1 to 1 µM,0.1 to 1 µM,B (B represents 100-1000 nM)
1 to 10 µM,1 to 10 µM,1 to 10 µM,1 to 10 µM,< 0.1 µM,0.1 to 1 µM,0.1 to 1 µM,0.1 to 1 µM,Cn1cc2c(O)c(-c3ncc4nc(C5CCNCC5)ccc4n3)ccc2n1 [Compound 108],1 to 10 µM,1 to 10 µM,B (B represents 100-1000 nM)

# More lines, now with the values behind:
SMILES,IC50 (HTT mRNA; [1]),IC50 (HTT mRNA; [2]),IC50 (MYB mRNA; [3]),IC50 (MYB mRNA; [4]),IC50 (SMN2 mRNA),IC50 (MYB),IC50 (HTT),IC50 (Target C),AC50 (HTT mRNA; RT-qPCR),AC50 (MYB mRNA; RT-qPCR),"Effect of Exemplary Compounds on Cell Viability, K562 (K562 cells)"
Cn1cc2cc(-c3ccc4cc(C5CCNCC5)ccc4n3)c(O)cc2n1 [Compound 109],< 0.1 µM,< 0.1 µM,< 0.1 µM,< 0.1 µM,< 0.1 µM,< 0.1 µM,< 0.1 µM,< 0.1 µM,0.1 to 1 µM,0.1 to 1 µM,B (B represents 100-1000 nM)
Cn1cc2cc(-c3ccc4c(F)c(C5CCNCC5)ccc4n3)c(O)cc2n1 [Compound 115],1 to 10 µM,1 to 10 µM,0.1 to 1 µM,0.1 to 1 µM,< 0.1 µM,< 0.1 µM,0.1 to 1 µM,0.1 to 1 µM,1 to 10 µM,0.1 to 1 µM,B (B represents 100-1000 nM)
CN1CCN(c2ccc3nc(-c4cc5cn(C)nc5cc4O)ccc3n2)CC1 [Compound 116],1 to 10 µM,1 to 10 µM,0.1 to 1 µM,0.1 to 1 µM,< 0.1 µM,1 to 10 µM,1 to 10 µM,1 to 10 µM,1 to 10 µM,1 to 10 µM,C (C represents 1000-9999 nM)
CC1CN(c2ccc3nc(-c4cc5cn(C)nc5cc4O)ccc3n2)CCN1 (stereo not drawn) [Compound 117],1 to 10 µM,1 to 10 µM,0.1 to 1 µM,0.1 to 1 µM,< 0.1 µM,0.1 to 1 µM,0.1 to 1 µM,1 to 10 µM,1 to 10 µM,0.1 to 1 µM,B (B represents 100-1000 nM)
CC1CN(c2ccc3nc(-c4cc5cn(C)nc5cc4O)ccc3n2)CCN1C (stereo not drawn) [Compound 118],1 to 10 µM,1 to 10 µM,0.1 to 1 µM,0.1 to 1 µM,< 0.1 µM,0.1 to 1 µM,1 to 10 µM,> 10 µM,1 to 10 µM,1 to 10 µM,C (C represents 1000-9999 nM)
CCC1CN(c2ccc3nc(-c4cc5cn(C)nc5cc4O)ccc3n2)CCN1 (stereo not drawn) [Compound 119],0.1 to 1 µM,0.1 to 1 µM,0.1 to 1 µM,0.1 to 1 µM,< 0.1 µM,0.1 to 1 µM,0.1 to 1 µM,0.1 to 1 µM,1 to 10 µM,0.1 to 1 µM,B (B represents 100-1000 nM)
